Holding throughout (format): in vivo
Assay [1] deals with patients diagnosed with benign prostatic hypertrophy. The assay is described as follows: First retrospective study: cardiac events (cardiac bypass or heart attack) in BPH patients on finasteride vs alpha-blocker control. The note with it: finasteride treated group of 22 subjects, 61 subject-years, on drug at least a year, 5 mg oral tablet a day; control 7 events over 288 subject-years. As to the method: Finasteride was being administered at a dosage of a single oral 5 mg tablet a day. This is the same tablet used in treatment of BPH as disclosed in U.S. Pat. No. 5,175,155 and such dosage applies in the present invention. However, use of a 2 mg or 10 mg oral tablet is contemplated. Two studies were undertaken to determine whether finasteride was, in fact, effective in lessening the incidence of heart disease and other complications of atherosclerosis. The result of the first study is as follows; A list of patients diagnosed with benign prostatic hypertrophy in late 1992 and 1993 was located. Treatment had been initiated with either finasteride or another oral agent of a different class (alpha-blocker). Patients were then contacted and an interval history was taken. In the control group of 45 subjects, 7 events (either cardiac bypass or heart attack) occurred in 6 subjects over 288 subject-years. In the finasteride treated group of 22 subjects there were no events over 61 subject-years. […] (95% Cl equal to 0.65% to 4.2%).

Another assay concerns patients of the practice. The assay is described as follows: Second study: questionnaire on cardiac events in patients of the practice treated with finasteride. As to the method:
Finasteride was being administered at a dosage of a single oral 5 mg tablet a day. This is the same tablet used in treatment of BPH as disclosed in U.S. Pat. No. 5,175,155 and such dosage applies in the present invention. However, use of a 2 mg or 10 mg oral tablet is contemplated. Two studies were undertaken to determine whether finasteride was, in fact, effective in lessening the incidence of heart disease and other complications of atherosclerosis. In the second study patients of the practice were given a questionnaire. Various patients had been treated with finasteride for varying lengths of time. Only those on the drug for at least one year were considered. The average time on finasteride was 3 years. The number of cardiac events occurring in the patients taking finasteride was only 4 events over 242 patient-years. (1.6%/yr.) In the control group 26 events occurred in the 3 years prior over 732 patient-years. (3.5%/yr.) The 45% decrease observed in cardiac events is believed to be significant. (90% Cl equal to 1.4% to 3.7%).

Assay [2] relates to patients treated for benign prostatic hypertrophy. The assay is described as follows: Clinical observation of patients given finasteride for benign prostatic hypertrophy. The note with it: finasteride single oral 5 mg tablet a day for BPH. The protocol:
Finasteride was being administered at a dosage of a single oral 5 mg tablet a day. This is the same tablet used in treatment of BPH as disclosed in U.S. Pat. No. 5,175,155 and such dosage applies in the present invention. However, use of a 2 mg or 10 mg oral tablet is contemplated.

A further assay deals with prostate cancer patients. The assay is described as follows: Retrospective chart review: cardiac events in prostate cancer patients treated with LHRH inhibitors vs controls. The note with it: for Events/Year: cardiac events per subject year, Total Control .0338; for observed difference between the proportions vs Total Control: events/year, treated group vs Total Control (Groups 1 + 4); for Cardiac Events: heart attack, coronary artery bypass or angioplasty, on drug at least one year, Total Control 32 events over 948 subject years; for heart attacks compared with controls: treated patients vs controls. The protocol: Another retrospective study was performed which compared the rates of patient reported heart attack in several groups 1-control group of males entering the urology office for any routine complaint. 2-a group of prostate cancer patients treated with Leuprolide acetate, a LHRH inhibitor. 3-a group of prostate cancer patients treated with Goserelin acetate (Zoladex), a LHRH inhibitor. 4-a group of prostate cancer patients not treated with hormonal manipulation (neither Leuprolide or Goserelin). 5-all patients on LHRH inhibitors (group 2+group 3). The patients on either Leuprolide or Goserelin were treated with the recommended doses indicated for the treatment of prostatic carcinoma, at either one or three month intervals depending on the preparation used. Leuprolide was dosed at 7.5 mg monthly (single intramuscular injection) or at 22.5 mg at 3 month intervals (single intramuscular injection). Goserelin was dosed at 3.6 mg monthly or at a dose of 10.8 mg at 3 month intervals (subcutaneous injection). The various groups of office patients were evaluated by chart […]. In groups 2 and 3 only those on drug for at least one year were considered. Cardiac event is defined either the history of a heart attack or occurrence of coronary artery bypass or angioplasty. In control groups only events occurring in the 3 years prior to the questionnaire are charted.

Counter-ions that a name gives are not always drawn.

Take `CC(C)(C)NC(=O)[C@H]1CC[C@H]2[C@@H]3CC[C@H]4NC(=O)C=C[C@]4(C)[C@H]3CC[C@]12C` [finasteride, 4-azaandrost-1-ene-17-carboxamide, N-(1,1-dimethylethyl)-3oxo-(5alpha 17beta)-]: the “events (either cardiac bypass or heart attack)” value in assay [1] is listed as “no events”. The cardiac event rate in the assay with patients of the practice (4 events over 242 patient-years, control 3.5%/yr) was 1.6 %/yr. The “decrease observed in cardiac events” value with patients of the practice (finasteride vs control group) is 45%. Moreover, in the assay with patients of the practice (over 242 patient-years, on drug at least one year, average 3 years, control 26 events over 732 patient-years), the “number of cardiac events” value was found to be 4 events. For the same compound, the “incidence of atherosclerosis and heart disease (observation)” value in assay [2] was “lower incidence of atherosclerosis and heart disease”.
Consider `CC(C)C[C@H](NC(=O)[C@@H](COC(C)(C)C)NC(=O)[C@H](Cc1ccc(O)cc1)NC(=O)[C@H](CO)NC(=O)[C@H](Cc1c[nH]c2ccccc12)NC(=O)[C@H](Cc1cnc[nH]1)NC(=O)[C@@H]1CCC(=O)N1)C(=O)N[C@@H](CCCNC(=N)N)C(=O)N1CCC[C@H]1C(=O)NNC(N)=O` [Zoladex, pyro-Glu-His-Trp-Ser-Tyr-D-Ser(Bu)-Leu-Arg-Pro-Azgly-NH2 acetate], for which, in the assay with prostate cancer patients, the Events/Year result is recorded as “.0161”, the “observed difference between the proportions vs Total Control” value turned out to be 0.0177, the “Cardiac Events” value stood at 1 and the “heart attacks compared with controls” value is listed as “fewer heart attacks than controls”.
Turning to `CCNC(=O)[C@@H]1CCCN1C(=O)[C@H](CCCNC(=N)N)NC(=O)[C@H](CC(C)C)NC(=O)[C@@H](CC(C)C)NC(=O)[C@H](Cc1ccc(O)cc1)NC(=O)[C@H](CO)NC(=O)[C@H](Cc1c[nH]c2ccccc12)NC(=O)[C@H](Cc1c[nH]cn1)NC(=O)[C@@H]1CCC(=O)N1` [Lupron, 5-oxo-L-prolyl-L-histidyl-L-tryptophyl-L-seryl-L-tyrosyl-D-leucyl-L-leucyl-L-arginyl-N-ethyl-L-prolinamide acetate (salt)], in the assay on prostate cancer patients, the Events/Year result is reported as “.00847”, the “observed difference between the proportions vs Total Control” value is 0.253, the “Cardiac Events” value is listed as 1 and the “heart attacks compared with controls” value is “fewer heart attacks than controls”.

Source of the values: US20020006399A1, “Therapeutic uses of hormonal manipulation using combinations of various agents to treat atherosclerosis” (priority 1999, published 2002).
